{
  "source": "patent US20240009266A1",
  "about": "“PHARMACEUTICAL COMBINATIONS COMPRISING A PEPTIDE CXCR4 INHIBITOR AND A TAXANE FOR TREATING CANCER” (POLYPHOR AG, priority 2020, published 2024)",
  "key": {"[1]": {"system": "breast cancer PDX Ma15169", "details": "for tumor growth inhibition / therapeutic effect (in words): Ma15169 PDX, humanized NOG-EXL mice, treatment day 154-182; for T/C value (treated-to-control tumor volume) at the last day of the study: day 183, Paclitaxel 10 mg/kg i.v. twice weekly, treatment from day 154, 29 days; for response rating according to RECIST criteria: from T/C at day 183 (last day of the study)", "experimental": "The study was designed to determine the response of the breast cancer PDX Ma15169 to treatment with Paclitaxel single agent, Balixafortide single agent and the combination of both in humanized NOG-EXL mice. Humanized NOG-EXL mice bearing the breast cancer PDX Ma15169 were treated with Paclitaxel and Balixafortide according to Table 1. Ma15169 is a patient derived xenograft (PDX) that was from a patient with an invasive ductal carcinoma (ypT1a ypN1a R0 G3 L1 V1). The patient tumour was ER/PR as well as Her-2 negative. The tumour material was expanded in 9 donor mice (NOG, Taconic; https://www.taconic.com/mouse-model/ciea-nog-mouse) and fragments of about 10 mm3 were each implanted subcutaneously into the flank of 50 humanized NOG-EXL mice; at this time, the passage number of Ma15169 was #4.\nFemale NOG-EXL mice with an age of about 4 weeks were used for the constitution of human immune cells. 24 hours before CD34+ cell inoculation mice were irradiated with 1Gy. Human CD34+ cells were isolated from fresh cord blood within the laboratories of EPO (Experimental Pharmacology & Oncology Berlin-Buch GmbH, Berlin-Buch, Germany) and preserved in liquid nitrogen until use. For the study MV16883 a pool of 5 different donors (CB AG 101, CB AG 97, CB KR 104, CB AG 106, CB AG 107) prepared. After thawing the cells were washed with PBS, pooled and washed again followed by Trypan blue staining and cell counting using Neubauer chamber. A total of 5×10^4 vital cells were resuspended in 200 μl PBS and injected intravenously into the tail vain of all mice.\nDetermination of human immune cells by FACS was performed at days 46, 84 and 115 after cell inoculation (leucocytes CD45+, B cells CD19+, T cells CD3+, NK cells CD56+/CD16+ and monocytes CD14+; Human Immunophenotyping 8-color-Kit (Miltenyi)). The mice were weighed weekly and monitored for general health two times weekly.\nThe PDX Ma15169 is maintained by EPO (Experimental Pharmacology & Oncology Berlin-Buch GmbH, Berlin-Buch, Germany) as in vivo passage; the passage number for this study was #4. Donor mice (female NOG; Taconic) with tumors of about 1 cm3 were used for the preparation of this study MV16883.\nAfter removal of the tumor tissue from donor mice, the tumors were cut into fragments (2-3 mm diameter—approximately 10 mm3) and placed in cooled RPMI 1640 culture medium until s.c. implantation within 30 minutes. The humanized NOG-EXL mice were anaesthetized with Etomidate and received a small incision in the skin of the left flank. The tumor fragments (one fragment/mouse) were implanted with tweezers and the incision closed with a suture clip (#310417, Covetrus GmbH). The clips were removed after seven days and mice controlled two times weekly by means of palpation. The implantation of tumor fragments was performed 122 days after the inoculation of CD34+ cells.\nTumor bearing mice were stratified into 4 treatment groups according to their tumor volumes at day 154 post CD34+ cell inoculation (32 days after tumor implantation). […] During stratification the animals were individually marked by earmarks.\nPaclitaxel (Taxomedac™ comprising paclictaxel, citric acid, ethanol and PEG (30-50) castor oil) was given i.v. at a dose of 10 mg/kg twice weekly. Balixafortide was given s.c. at a dose of 20 mg/kg once daily for the first 5 days and twice daily for 5 days followed by treatment breaks of 2 days until the end of treatment period (FIG. 1). Total treatment duration was 29 days. Successful engraftment of human CD34+ cells was checked by flow cytometry (FACS).\nChanges in the human immune cell population in blood were followed-up at the end of the study by FACS analysis."}, "[2]": {"molecular_target": "human CXCR4 receptor (Homo sapiens, UniProt P61073)", "sequence (P61073 whole entry)": "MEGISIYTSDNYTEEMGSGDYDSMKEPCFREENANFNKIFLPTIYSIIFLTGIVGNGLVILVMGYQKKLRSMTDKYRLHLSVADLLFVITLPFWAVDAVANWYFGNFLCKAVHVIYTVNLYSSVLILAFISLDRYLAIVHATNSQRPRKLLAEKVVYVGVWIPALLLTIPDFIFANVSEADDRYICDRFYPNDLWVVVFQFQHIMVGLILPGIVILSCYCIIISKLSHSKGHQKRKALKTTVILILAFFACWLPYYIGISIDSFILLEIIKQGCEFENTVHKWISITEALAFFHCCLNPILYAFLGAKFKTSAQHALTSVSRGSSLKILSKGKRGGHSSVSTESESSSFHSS", "test": "In vitro receptor binding studies, human CXCR4 receptor"}, "[3]": {"system": "other potential target receptors", "test": "In vitro receptor binding studies, other receptors"}},
  "data": [
    {"compound": "Cyclo(-Tyr-His-Ala-Cys-Ser-Ala-^DPro-Dab-Arg-Tyr-Cys-Tyr-Gln-Lys-^DPro-Pro-) having a disulfide bond between Cys^4 and Cys^11 [Balixafortide]", "values": [
      {"measurement": "tumor growth inhibition / therapeutic effect (in words)", "setting": "[1]", "result": "inhibited tumor growth marginally"},
      {"measurement": "T/C value (treated-to-control tumor volume) at the last day of the study", "setting": "[1]; Balixafortide 20 mg/kg s.c.", "result": 107, "unit": "%"},
      {"measurement": "optimum T/C value", "setting": "[1]; found at day 168, Balixafortide 20 mg/kg s.c., p>0.05", "result": 79, "unit": "%"},
      {"measurement": "response rating according to RECIST criteria", "setting": "[1]", "result": "progressive disease"},
      {"measurement": "affinity for the human CXCR4 receptor (in words)", "setting": "[2]", "result": "significant affinity"},
      {"measurement": "binding to other potential target receptors (in words)", "setting": "[3]", "result": "general lack of significant binding"}
    ]},
    {"compound": "CC(=O)O[C@H]1C(=O)[C@@]2(C)[C@H]([C@H](OC(=O)c3ccccc3)[C@]3(O)C[C@H](OC(=O)[C@H](O)[C@@H](NC(=O)c4ccccc4)c4ccccc4)C(C)=C1C3(C)C)[C@]1(OC(C)=O)CO[C@@H]1C[C@@H]2O", "note": "[Paclitaxel, reference compound]", "values": [
      {"measurement": "tumor growth inhibition / therapeutic effect (in words)", "setting": "[1]", "result": "significant tumor growth inhibition"},
      {"measurement": "T/C value (treated-to-control tumor volume) at the last day of the study", "setting": "[1]; Balixafortide 20 mg/kg s.c.", "result": 42, "unit": "%"},
      {"measurement": "response rating according to RECIST criteria", "setting": "[1]", "result": "stable disease"}
    ]}
  ]
}
